Test results taken from patent US20260207659A1, “COMPOSITIONS FOR USE IN THE PROPHYLACTIC TREATMENT OF HYPOCALCEMIA IN A RUMINANT ANIMAL” (VILOFOSS A/S, priority 2022, published 2026).
Where “and” joins values, the source holds several entries; their conditions need not be identical. Equal entries are not always repeated. Where two headings read alike, the source gives them in different places.

Test: In vitro phosphorus binding efficacy in rumen fluid, three phases mimicking the digestive tract of a ruminant (Thilsing et al.)
Design: species or system ruminant animal; Phosphate binding in comparison to control, % / P binding in comparison to control, %: concentration or dose not given beside the values
[1] = Table 1, from free phosphate, relative to Zeolite 4A
[2] = Table 1, from free phosphate, relative to untreated control
[3] = Table 2, phase 3 binding capacity, relative to Zeolite 4A
[4] = Table 2, phase 3 binding capacity, relative to control
[5] = phase 3 (after HCl and HCO3-, mimicking small intestine)
[6] = statement in words on Tables 1 and 2
[7] = supernatant of rumen fluid after addition of HCl and HCO3-, 0.06 g compound/8 ml rumen fluid

SMILES	Phosphate binding in comparison to 4A, % [1] [%]	Phosphate binding in comparison to control, % [2] [%]	Phosphate binding in comparison to 4A, % [3] [%]	P binding in comparison to control, % [4] [%]	Phosphate Binding Capacity [5]	Phosphorus binding compared to other compounds, including Zeolite 4A alone [6]	Free Phosphate [7] [mmol]	Free Phosphate [mmol]	P binding in comparison to control, % [%]	Phosphate Binding Capacity	Phosphate binding in comparison to 4A, %	Phosphate binding in comparison to control, % [%]	Phosphorus binding compared to other compounds, including Zeolite 4A alone
[Cl][Al]([Cl])[Cl] [Aluminium chloride]	45.6	64.3	94	96	88.9 mg Phosphate/gram of compound	superior	7.0						
O=S(=O)([O-])[O-].[Fe+2] [Iron (II) sulphate]								8.2	75	69.3 mg Phosphate/gram of compound	36.5% and 56%	58.3	superior
O=C([O-])[O-].O=C([O-])[O-].O=C([O-])[O-].[La+3].[La+3] [Lanthanum carbonate, hydrated, reference compound]	22.6	49.2	72	84	77.7 mg Phosphate/gram of compound	superior	10.0						
[Cl][La]([Cl])[Cl] [Lanthanum chloride]	51.1	67.9	62	79	72.8 mg Phosphate/gram of compound	superior	6.3						
